“And” between values parts separate entries of the source, which are not always exact repeats. Equal values may be shown once. Records with an inconclusive call do not appear.
Tested on: mice, ADJ-PC-20 plasma cell tumor sc, T/C %
Assay: NCI In Vivo Anticancer Drug Screen. Data for tumor model ADJ-PC-20 Plasma Cell (subcutaneous) in unknown mice
Settings: endpoint: mean tumor weight, higher = larger tumour
Procedure: The antitumor activity of compounds was measured in mice bearing transplantable tumors. Survival or tumor size were measured and the results are expressed as the measurement made in the treated group (T) divided by the measurement made in the vehicle treated control group (C). The tumor model used in this assay is ADJ-PC-20 Plasma Cell (subcutaneous) in unknown mice

[1] = dose: 50.0 mg/kg/injection, schedule: Q01DX010 (ip), vehicle: carboxymethylcellulose (CMC)
[2] = dose: 100.0 mg/kg/injection, schedule: Q01DX010 (ip), vehicle: carboxymethylcellulose (CMC)
[3] = dose: 250.0 mg/kg/injection, schedule: Q01DX010 (ip), vehicle: saline
[4] = dose: 25.0 mg/kg/injection, schedule: Q01DX010 (ip), vehicle: carboxymethylcellulose (CMC)
[5] = dose: 0.63 mg/kg/injection, schedule: Q01DX010 (ip), vehicle: saline
[6] = dose: 1.25 mg/kg/injection, schedule: Q01DX010 (ip), vehicle: saline

How did the T/C (dose: 0.25 mg/kg/injection, schedule: Q01DX010 (ip), vehicle: carboxymethylcellulose (CMC)) turn out when O[C@H](CN1CC1)[C@@H](O)CN1CC1 was run?
The T/C was 25 % of control.

What about the T/C (dose: 16.0 micrograms/kg/injection, schedule: Q01DX010 (ip), vehicle: carboxymethylcellulose (CMC)) of the same molecule?
Its T/C is 103 % of control.

And the T/C (dose: 31.0 micrograms/kg/injection, schedule: Q01DX010 (ip), vehicle: carboxymethylcellulose (CMC))?
The T/C was 151 % of control.

What about the T/C (dose: 63.0 micrograms/kg/injection, schedule: Q01DX010 (ip), vehicle: carboxymethylcellulose (CMC)) of the same molecule?
The T/C was 55 % of control.

What about the T/C (dose: 125.0 micrograms/kg/injection, schedule: Q01DX010 (ip), vehicle: carboxymethylcellulose (CMC)) of the same molecule?
The T/C was 66 % of control.

With C[C@@H]1C[C@H]2CC[C@H](O2)[C@H](C)C(=O)O[C@@H](C)C[C@@H]2CC[C@@H](O2)[C@@H](C)C(=O)O[C@H](C)C[C@H]2CC[C@H](O2)[C@H](C)C(=O)O[C@@H](C)C[C@@H]2CC[C@@H](O2)[C@@H](C)C(=O)O1 as the molecule, how does the T/C [1] read?
The T/C was 110 % of control.

What about the T/C [2] of the same molecule?
The T/C was 120 % of control.

What about the T/C (dose: 200.0 mg/kg/injection, schedule: Q01DX010 (ip), vehicle: carboxymethylcellulose (CMC)) of the same molecule?
The T/C was 99 % of control.

Which T/C [3] does the source give for CCOC(N)=O here?
Its T/C is 80 % of control and 95 % of control.

For O=c1[nH]c(=O)n(C2CC(O)C(CO)O2)cc1F (stereo not given), which T/C [4] is on record?
Its T/C is 67 % of control.

What about the T/C [1] of the same molecule?
Its T/C is 21 % of control.

What about the T/C [2] of the same molecule?
The T/C was 36 % of control.

Nc1ncnc2c1ccn2C1OC(CO)C(O)C1O (stereo not given) was tested. Which T/C (dose: 0.63 mg/kg/injection, schedule: Q01DX010 (ip), vehicle: carboxymethylcellulose (CMC)) did it give?
The T/C was 94 % of control.

What does the source list for N[C@@H](Cc1ccc(N(CCCl)CCCl)cc1)C(=O)O?
T/C (dose: 0.3 mg/kg/injection, schedule: Q01DX010 (ip), vehicle: saline): 48 % of control; T/C [5]: 75 % of control; T/C [6]: 52 % of control

What does the source list for O=c1cnn(C2OC(CO)C(O)C2O)c(=O)[nH]1 (stereo not given)?
T/C (dose: 31.0 mg/kg/injection, schedule: Q01DX011 (ip), vehicle: water): 51 % of control; T/C (dose: 62.5 mg/kg/injection, schedule: Q01DX011 (ip), vehicle: water): 52 % of control; T/C (dose: 125.0 mg/kg/injection, schedule: Q01DX010 (ip), vehicle: water): 41 % of control; T/C (dose: 125.0 mg/kg/injection, schedule: Q01DX011 (ip), vehicle: water): 69 % of control; T/C (dose: 250.0 mg/kg/injection, schedule: Q01DX010 (ip), vehicle: water): 49 % of control; T/C (dose: 250.0 mg/kg/injection, schedule: Q01DX011 (ip), vehicle: water): 30 % of control

With S=P(N1CC1)(N1CC1)N1CC1 as the molecule, how does the T/C [5] read?
Its T/C is 57 % of control.

And the T/C [6]?
The T/C was 2 % of control.

For CC(=O)N(C)C, which T/C [3] is on record?
The T/C was 60 % of control.

And the T/C (dose: 500.0 mg/kg/injection, schedule: Q01DX010 (ip), vehicle: saline)?
The T/C was 75 % of control.

What about the T/C (dose: 1000.0 mg/kg/injection, schedule: Q01DX010 (ip), vehicle: saline) of the same molecule?
Its T/C is 51 % of control.

How did the T/C (dose: 63.0 micrograms/kg/injection, schedule: Q01DX010 (ip), vehicle: alkali diluted with saline) turn out when Nc1nc(N)c2nc(CNc3ccc(C(=O)NC(CCC(=O)O)C(=O)O)cc3)cnc2n1 (stereo not given) was run?
Its T/C is 86 % of control.

And the T/C (dose: 125.0 micrograms/kg/injection, schedule: Q01DX010 (ip), vehicle: alkali diluted with saline)?
Its T/C is 82 % of control.

Which results are given for Nc1nc(SCc2ccccc2)c2[nH]cnc2n1?
T/C (dose: 0.3 mg/kg/injection, schedule: Q01DX010 (ip), vehicle: carboxymethylcellulose (CMC)): 94 % of control; T/C (dose: 1.2 mg/kg/injection, schedule: Q01DX010 (ip), vehicle: carboxymethylcellulose (CMC)): 81 % of control; T/C (dose: 2.4 mg/kg/injection, schedule: Q01DX010 (ip), vehicle: carboxymethylcellulose (CMC)): 119 % of control; T/C (dose: 4.7 mg/kg/injection, schedule: Q01DX010 (ip), vehicle: carboxymethylcellulose (CMC)): 9 % of control

What does the source list for CN(Cc1cnc2nc(N)nc(N)c2n1)c1ccc(C(=O)N[C@@H](CCC(=O)O)C(=O)O)cc1?
T/C (dose: 0.04 mg/kg/injection, schedule: Q01DX010 (ip), vehicle: other): 117 % of control; T/C (dose: 0.08 mg/kg/injection, schedule: Q01DX010 (ip), vehicle: other): 107 % of control; T/C (dose: 0.15 mg/kg/injection, schedule: Q01DX010 (ip), vehicle: other): 78 % of control; T/C (dose: 0.31 mg/kg/injection, schedule: Q01DX011 (ip), vehicle: other): 46 % of control; T/C (dose: 0.62 mg/kg/injection, schedule: Q01DX010 (ip), vehicle: other): 68 % of control and 89 % of control; T/C (dose: 0.62 mg/kg/injection, schedule: Q01DX011 (ip), vehicle: other): 59 % of control; T/C (dose: 0.63 mg/kg/injection, schedule: Q01DX010 (ip), vehicle: other): 88 % of control and 107 % of control

Nc1ncnc2[nH]ncc12 was tested. Which T/C (dose: 6.25 mg/kg/injection, schedule: Q01DX010 (ip), vehicle: carboxymethylcellulose (CMC)) did it give?
The T/C was 108 % of control.

What about the T/C (dose: 12.5 mg/kg/injection, schedule: Q01DX010 (ip), vehicle: carboxymethylcellulose (CMC)) of the same molecule?
The T/C was 87 % of control.

And the T/C [4]?
Its T/C is 22 % of control.

Which results are given for CSCS(=O)C[C@H](CO)NC(=O)/C=C/c1c(C)[nH]c(=O)[nH]c1=O (stereo not given in full)?
T/C (dose: 0.25 mg/kg/injection, schedule: Q01DX010 (ip), vehicle: saline): 71 % of control; T/C (dose: 0.5 mg/kg/injection, schedule: Q01DX010 (ip), vehicle: saline): 82 % of control

Reference: PubChem BioAssay AID332 (DTP/NCI, 2004)
